Experimental data taken from US20230167088A1, “1-PYRAZINYLPYRAZOLYL-3-OXYALKYL ACIDS AND THEIR DERIVATIVES, AND THEIR USE FOR CONTROL OF UNDESIRED PLANT GROWTH” (BAYER AKTIENGESELLSCHAFT, priority 2020, published 2023).

Experiments:
MATIN [1] = assay: Herbicidal pre-emergence action 2b (doubly sown, 1280 g/ha); format: in vivo, Matricaria inodora; settings: doubly sown pots, dosage 1280 g/ha, visual scoring after about 3 weeks
Summary of the method: (§1)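 Sandy loam pots, one mono- or dicot species each, double sowing; seeds covered. Aqueous WP/EC spray + 0.5% additive, 600 L/ha, onto cover soil. GH, ~3 wk, visual % vs control.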

AMARE [2] = assay: as above; format: in vivo, Amaranthus retroflexus; settings: doubly sown pots, dosage 1280 g/ha, visual scoring after about 3 weeks
Summary of the method: as §1

DIGSA [3] = assay: as above; format: in vivo, Digitaria sanguinalis; settings: doubly sown pots, dosage 1280 g/ha, visual scoring after about 3 weeks
Excerpt: [table] b) Seeds of mono- and dicotyledonous weed plants are placed in plastic pots in sandy loam soil (doubly sown with one species each of mono- or dicotyledonous weed plants per pot) and covered with soil. The compounds of the invention, formulated in the form of wettable powders (WP) or as emulsion concentrates (EC), are then applied onto the surface of the covering soil as aqueous suspension or emulsion with addition of 0.5% additive at a water application rate equivalent to 600 litres per hectare. After the treatment, the pots are placed in a greenhouse and kept under good growth conditions for the trial plants. After about 3 weeks, the effect of the preparations is scored visually in comparison with untreated controls as percentages. For example, 100% activity=the plants have died, 0% activity=like control plants. Tables B16 to B21 below show the effects of selected compounds of the general formula (I) according to Tables 1 and 2 on various harmful plants and at an application rate corresponding to 1280 g/ha, which were obtained by the experimental procedure mentioned above.

POAAN [4] = assay: as above; format: in vivo, Poa annua; settings: doubly sown pots, dosage 1280 g/ha, visual scoring after about 3 weeks
Summary of the method: as §1

DIGSA [5] = assay: Herbicidal post-emergence action 1b (twin sowing, 1280 g/ha); format: in vivo, Digitaria sanguinalis; settings: dosage 1280 g/ha, visual rating about 3 weeks after treatment
Procedure: (§2) [table] b) Seeds of mono- and dicotyledonous weed plants are placed in plastic pots in sandy loam soil (twin sowing with one species each of mono- or dicotyledonous weed plants per pot), covered with soil and cultivated in a greenhouse under controlled growth conditions. 2 to 3 weeks after sowing, the test plants are treated at the one-leaf stage. The compounds of the invention, formulated in the form of wettable powders (WP) or as emulsion concentrates (EC), are applied to the green parts of the plants as aqueous suspension or emulsion with addition of 0.5% additive at a water application rate equivalent to 600 litres per hectare. After the test plants have been kept in the greenhouse under optimum growth conditions for about 3 weeks, the activity of the preparations is rated visually in comparison to untreated controls. For example, 100% activity=the plants have died, 0% activity=like control plants. Tables A16 to A21 below show the effects of selected compounds of the general formula (I) according to Tables 1 and 2 on various harmful plants and at an application rate corresponding to 1280 g/ha, which were obtained by the experimental procedure mentioned above.

MATIN [6] = assay: as above; format: in vivo, Matricaria inodora; settings: dosage 1280 g/ha, visual rating about 3 weeks after treatment
Procedure: as §2

STEME [7] = assay: Herbicidal pre-emergence action 2b (doubly sown, 1280 g/ha); format: in vivo, Stellaria media; settings: doubly sown pots, dosage 1280 g/ha, visual scoring after about 3 weeks
Summary of the method: as §1

POAAN [8] = assay: Herbicidal post-emergence action 1b (twin sowing, 1280 g/ha); format: in vivo, Poa annua; settings: dosage 1280 g/ha, visual rating about 3 weeks after treatment
Summary of the method: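 Compounds, formulated as wettable powders or emulsion concentrates, were applied to foliage of greenhouse-grown weeds at the one-leaf stage with 0.5% additive in 600 L/ha water. Pots held one monocot and one dicot species in sandy loam. Efficacy was scored visually after about 3 weeks versus controls.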

ECHCG [9] = assay: as above; format: in vivo, Echinochloa crus-galli; settings: dosage 1280 g/ha, visual rating about 3 weeks after treatment
Procedure: as §2

STEME [10] = assay: as above; format: in vivo, Stellaria media; settings: dosage 1280 g/ha, visual rating about 3 weeks after treatment
Procedure: as §2

ECHCG [11] = assay: Herbicidal pre-emergence action 2b (doubly sown, 1280 g/ha); format: in vivo, Echinochloa crus-galli; settings: doubly sown pots, dosage 1280 g/ha, visual scoring after about 3 weeks
Summary of the method: as §1

ABUTH = assay: Herbicidal post-emergence action 1b (twin sowing, 1280 g/ha); format: in vivo, Abutilon theophrasti; settings: dosage 1280 g/ha, visual rating about 3 weeks after treatment
Procedure: as §2

ALOMY [12] = assay: Herbicidal pre-emergence action 2a (greenhouse pots, visual scoring); format: in vivo, Alopecurus myosuroides; settings: dosage 320 g/ha, visual scoring after about 3 weeks
Summary of the method: (§3)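 The soil covering sown seeds is treated with an aqueous suspension or emulsion of wettable powder or emulsion concentrate (0.5% additive, 600 l/ha), corresponding to 320 g/ha and/or 80 g/ha. After about 3 weeks of greenhouse growth, damage is scored visually as a percentage.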

LOLRI = assay: as above; format: in vivo, Lolium rigidum; settings: dosage 320 g/ha, visual scoring after about 3 weeks vs untreated controls
Summary of the method: as §3

VERPE = assay: as above; format: in vivo, Veronica persica; settings: dosage 320 g/ha, visual scoring after about 3 weeks vs untreated controls
Summary of the method: as §3

AMARE [13] = assay: Herbicidal post-emergence action 1a (greenhouse pots, visual rating); format: in vivo, Amaranthus retroflexus; settings: dosage 80 g/ha, visual rating about 3 weeks after treatment
Summary of the method: (§4)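 Visual scoring versus untreated plants (100% = plants dead, 0% = as control) followed roughly 3 weeks in the greenhouse after treatment. Plants grown in sandy loam pots had been sprayed on green parts at the one-leaf stage, 2–3 weeks post-sowing, with aqueous WP/EC preparations containing 0.5% additive, 600 l/ha, at 320 and/or 80 g/ha.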

VIOTR = assay: Herbicidal pre-emergence action 2a (greenhouse pots, visual scoring); format: in vivo, Viola tricolor; settings: dosage 320 g/ha, visual scoring after about 3 weeks vs untreated controls
Excerpt: [table] a) Seeds of monocotyledonous and dicotyledonous weed plants and crop plants are placed in plastic or organic plant pots and covered with soil. The compounds of the invention, formulated in the form of wettable powders (WP) or as emulsion concentrates (EC), are then applied onto the surface of the covering soil as aqueous suspension or emulsion with addition of 0.5% additive at a water application rate of 600 1/ha (converted). After the treatment, the pots are placed in a greenhouse and kept under good growth conditions for the trial plants. After about 3 weeks, the effect of the preparations is scored visually in comparison with untreated controls as percentages. For example, 100% activity=the plants have died, 0% activity=like control plants. Tables B1 to B15 below show the effects of selected compounds of the general formula (I) according to Tables 1 and 2 on various harmful plants and an application rate corresponding to 320 g/ha and/or 80 g/ha, which were obtained by the experimental procedure mentioned above.

ALOMY [14] = assay: Herbicidal post-emergence action 1a (greenhouse pots, visual rating); format: in vivo, Alopecurus myosuroides; settings: Dosage 80 g/ha; rated visually about 3 weeks after treatment; 100% = plants have died, 0% = like control plants
Summary of the method: as §4

AMARE [15] = assay: Herbicidal pre-emergence action 2a (greenhouse pots, visual scoring); format: in vivo, Amaranthus retroflexus; settings: dosage 320 g/ha, visual scoring after about 3 weeks vs untreated controls
Summary of the method: as §3

POLCO = assay: as above; format: in vivo, Polygonum convolvulus; settings: dosage 320 g/ha, visual scoring after about 3 weeks vs untreated controls
Summary of the method: as §3

AVEFA [16] = assay: as above; format: in vivo, Avena fatua; settings: dosage 320 g/ha, visual scoring after about 3 weeks
Summary of the method: as §3

AVEFA [17] = assay: Herbicidal post-emergence action 1a (greenhouse pots, visual rating); format: in vivo, Avena fatua; settings: Dosage 80 g/ha; rated visually about 3 weeks after treatment; 100% = plants have died, 0% = like control plants
Summary of the method: as §4

SMILES	Pre-emergence action at 1280 g/ha against MATIN in % (MATIN [1]) [%]	Pre-emergence action at 1280 g/ha against AMARE in % (AMARE [2]) [%]	Pre-emergence action at 1280 g/ha against DIGSA in % (DIGSA [3]) [%]	Pre-emergence action at 1280 g/ha against POAAN in % (POAAN [4]) [%]	Post-emergence action at 1280 g/ha against DIGSA in % (DIGSA [5]) [%]	Post-emergence action at 1280 g/ha against MATIN in % (MATIN [6]) [%]	Pre-emergence action at 1280 g/ha against STEME in % (STEME [7]) [%]	Post-emergence action at 1280 g/ha against POAAN in % (POAAN [8]) [%]	Post-emergence action at 1280 g/ha against ECHCG in % (ECHCG [9]) [%]	Post-emergence action at 1280 g/ha against STEME in % (STEME [10]) [%]	Pre-emergence action at 1280 g/ha against ECHCG in % (ECHCG [11]) [%]	Post-emergence action at 1280 g/ha against ABUTH in % (ABUTH) [%]	other results
CCOC(=O)COc1nn(-c2nccnc2F)c(-c2ccc(F)c(F)c2)c1Br [Example I-74]	100	100	100	100	90	90	100	90					
CC(C)=NOC(=O)COc1nn(-c2cnccn2)c(-c2ccc(F)nc2)c1Br [Example I-69]	100	100	100	100	90	90	100	90	90	90	100		
CCOC(=O)COc1nn(-c2cnccn2)c(-c2ccc(F)nc2)c1C(F)(F)F [Example I-66]	100	100	100	100		90	100	90			90	90	
CCOC(=O)COc1nn(-c2nccnc2Cl)c(-c2ccc(F)nc2)c1Br [Example I-71]	100	100	100	100	90	100	100	100	100		100		
COC(=O)[C@@H](C)Oc1nn(-c2cnccn2)c(-c2cccnc2)c1Br [Example I-38]	100	100	100	100	90	90	100	100	100	100	100		
O=C(O)COc1nn(-c2nccnc2Cl)c(-c2ccc(F)nc2)c1Br [Example I-73]	100	100		100		100	100	100	100		100	90	
CC(Oc1nn(-c2cnccn2)c(-c2ccc(F)nc2)c1Br)C(=O)O (racemic) [Example I-24]		90	100	100			90	100				90	
COC(=O)COc1nn(-c2cnccn2)c(-c2cnc(F)c(F)c2)c1Br [Example I-42]	90	90	100	100	90	100	90	100					
COC(=O)[C@@H](C)Oc1nn(-c2nccnc2Cl)c(-c2ccc(F)nc2)c1Br [Example I-72]	100	100	100	100	100	100	100	100	100	90	100		Pre-emergence action against ALOMY in % (ALOMY [12]): 90%; Pre-emergence action against LOLRI in % (LOLRI): 100%; Pre-emergence action against VERPE in % (VERPE): 80%; Post-emergence action against AMARE in % (AMARE [13]): 80%; Pre-emergence action against VIOTR in % (VIOTR): 90%; Post-emergence action against ALOMY in % (ALOMY [14]): 90%; Pre-emergence action against AMARE in % (AMARE [15]): 100%; Pre-emergence action against POLCO in % (POLCO): 90%; Pre-emergence action against AVEFA in % (AVEFA [16]): 80%; Post-emergence action against AVEFA in % (AVEFA [17]): 90%
